# Results: PMC3983855, “Identification and enzymatic characterization of acid phosphatase from Burkholderia gladioli” (BMC Research Notes, 2014)
# Test system: membrane-bound acid phosphatase (MBAcP)
# Conditions: read-out: K0.5; 50 mM acetate pH 6.0, 37°C; membrane fraction; n = 1.3
compound,measurement,value
O=[N+]([O-])c1ccc(OP(=O)(O)O)cc1 [p-nitrophenylphosphate],Km,65 µM
